Tests used:
Assay in all cases: KiNativ profiling in H3255 cells
Format in all cases: cell-based, human
MAP2K2 = test system: T1, MAP2K2; conditions: 2.5 µM; Lys2; HQIMHRDVKPSNILVNSR
T1 construct: purchased ActivX Biosciences (KiNativ)
Protocol: (§1) Cellular target engagement assays […]
(§2) H3255 cells were plated with 6.5x10^6 per condition in fresh media in 15 cm plates and treated the 80% confluency for 2 hours with DMSO or 2.5 μM of ZNL-0056. To harvest cells, plates were washed 3 times with cold PBS, then collected by scraping into 4 mL of cold PBS containing protease and phosphatase inhibitors. Cells were pelleted by centrifugation at 1350 g at 4 ℃ for 5 minutes and immediately frozen in liquid nitrogen. The frozen samples were sent to ActivX Biosciences (La Jolla, CA) for the remainder of the KiNativ profiling experiment4. […]

MARK3 = test system: T2, MARK3; conditions: 2.5 µM; Lys1; EVAIKIIDKTQLNPTSLQK
T2 construct: purchased ActivX Biosciences (KiNativ)
Protocol: as §1, §2

PKD2 = test system: T3, PKD2; conditions: 2.5 µM; Lys1; DVAVKVIDK
T3 construct: purchased ActivX Biosciences (KiNativ)
Protocol: as §1, §2

CLK1 = test system: T4, CLK1; conditions: 2.5 µM; Lys2; LTHTDLKPENILFVQSDYTEAYNPK
T4 construct: purchased ActivX Biosciences (KiNativ)
Protocol: as §1, §2

ATR = test system: T5, ATR; conditions: 2.5 µM; ATP; FYIMMCKPK
T5 construct: purchased ActivX Biosciences (KiNativ)
Protocol: as §1, §2

MST3, MST4, YSK1 = conditions: 2.5 µM; Activation Loop; LADFGVAGQLTDTQIKR
Protocol: as §1, §2

SGK3 = test system: T6, SGK3; conditions: 2.5 µM; Lys1; FYAVKVLQK
T6 construct: purchased ActivX Biosciences (KiNativ)
Protocol: as §1, §2

MST4, YSK1 = conditions: 2.5 µM; Lys2; DIKAANVLLSEQGDVK
Protocol: (§3) treatment. Cell viability was determined by using CellTiter-Glo (Promega #G7571) according to the manufacturer’s instructions, measuring luminescence using an Envision plate-reader (PerkinElmer Inc.). Dose-response curves were generated using non-linear regression curve fit in GraphPad Prism 9.2.0(GraphPad Software).
(§4) Cellular target engagement assays
(§5) After 6 hours treatment, cells were pelleted, washed with PBS once and lysed with IP lysis buffer (25mMTris-HCl pH 7.4, 150mM NaCl, 1 mM EDTA, 1% NP-40 and 5% glycerol) (Thermo Fisher Scientific, Cat#87788) containing protease/phosphatase inhibitor cocktail (Roche). The protein concentrations were measured by BCA analysis (Pierce). Cell lysates were incubated with 1 μM of biotin conjugated probe (bio-Osimertinib or bio-ZNL-0013) at 4 ℃ overnight, and incubated for 3 more hours at room temperature. Lysates with probe were then incubated with streptavidin beads (Thermo Fisher, #20349) for 2 hours at 4 ℃. The protein-probe complexes on the beads were then subjected to immunoblotting.
(§6) H3255 cells were plated with 6.5x10^6 per condition in fresh media in 15 cm plates and treated the 80% confluency for 2 hours with DMSO or 2.5 μM of ZNL-0056. To harvest cells, plates were washed 3 times with cold PBS, then collected by scraping into 4 mL of cold PBS containing protease and phosphatase inhibitors. Cells were pelleted by centrifugation at 1350 g at 4 ℃ for 5 minutes and immediately frozen in liquid nitrogen. The frozen samples were sent to ActivX Biosciences (La Jolla, CA) for the remainder of the KiNativ profiling experiment4.
(§7) Protein expression and purification
(§8) Human EGFR kinase domain (residues 696-1022) with T790M and V948R mutations was cloned with an N-terminal, protease cleavable His -GST tag. Recombinant protein was expressed in SF9 insect cells using baculovirus generated from the pFastBac system (Thermo Fisher) .
(§9) Briefly, cells at a density of ~2x10^6 cells/mL were infected with 1% (v/v) virus stock and grown for ~72 hours before harvesting and freezing the cell pellet . Infected cells were lysed in buffer A (50 mM Tris pH 8.0, 500 mM NaCl, 5% glycerol, 0.5 mM Tris(2-carboxyethyl)phosphine [TCEP]), ultracentrifuged at >200,000 rcf for 1 h, and the supernatant flo wed through Ni-NTA resin by gravity. The resin was washed with buffer A supplemented with 40 mM imidazole by […]

BARK1 = test system: T7, BARK1; conditions: 2.5 µM; Lys2; DLKPANILLDEHGHVR
T7 construct: purchased ActivX Biosciences (KiNativ)
Protocol: as §3, §4, §5, §6, §7, §8, §9

MARK3, MARK4 = conditions: 2.5 µM; Lys1; EVAIKIIDK
Protocol: as §3, §4, §5, §6, §7, §8, §9

PITSLRE = test system: T8, PITSLRE; conditions: 2.5 µM; Lys2; DLKTSNLLLSHAGILK
T8 construct: purchased ActivX Biosciences (KiNativ)
Protocol: as §3, §4, §5, §6, §7, §8, §9

MAP3K5 = test system: T9, MAP3K5; conditions: 2.5 µM; Lys2; DIKGDNVLINTYSGVLK
T9 construct: purchased ActivX Biosciences (KiNativ)
Protocol: as §3, §4, §5, §6, §7, §8, §9

STLK5 = test system: T10, STLK5; conditions: 2.5 µM
T10 construct: purchased ActivX Biosciences (KiNativ)
Protocol: as §3, §4, §5, §6, §7, §8, §9

MAST3 = test system: T11, MAST3; conditions: 2.5 µM; Lys2; DLKPDNLLITSLGHIK
T11 construct: purchased ActivX Biosciences (KiNativ)
Protocol: as §3, §4, §5, §6, §7, §8, §9

CHK2 = test system: T12, CHK2; conditions: 2.5 µM
T12 construct: purchased ActivX Biosciences (KiNativ)
Protocol: as §3, §4, §5, §6, §7, §8, §9

CK1g3 = test system: T13, CK1g3; conditions: 2.5 µM; Lys2; DVKPENFLIGRPGNK
T13 construct: purchased ActivX Biosciences (KiNativ)
Protocol: as §3, §4, §5, §6, §7, §8, §9

MASTL = test system: T14, MASTL; conditions: 2.5 µM
T14 construct: purchased ActivX Biosciences (KiNativ)
Protocol: as §3, §4, §5, §6, §7, §8, §9

MAP3K6 = test system: T15, MAP3K6; conditions: 2.5 µM; Lys2; DIKGDNVLINTFSGLLK
T15 construct: purchased ActivX Biosciences (KiNativ)
Protocol: as §3, §4, §5, §6, §7, §8, §9

NDR2 = test system: T16, NDR2; conditions: 2.5 µM
T16 construct: purchased ActivX Biosciences (KiNativ)
Protocol: as §3, §4, §5, §6, §7, §8, §9

AMPKa1, AMPKa2 = conditions: 2.5 µM
Protocol: as §3, §4, §5, §6, §7, §8, §9

YANK3 = test system: T17, YANK3; conditions: 2.5 µM; Lys2; DVKPDNILLDER
T17 construct: purchased ActivX Biosciences (KiNativ)
Protocol: as §3, §4, §5, §6, §7, §8, §9

CaMK1a = test system: T18, CaMK1a; conditions: 2.5 µM; Lys1; LVAIKCIAK
T18 construct: purchased ActivX Biosciences (KiNativ)
Protocol: as §3, §4, §5, §6, §7, §8, §9

[1] = Activation Loop, YSVKVLPWLSPEVLQQNLQGYDAK

Structure (SMILES)	Inhibition (MAP2K2) [%]	Inhibition (MARK3) [%]	Inhibition (PKD2) [%]	Inhibition (CLK1) [%]	Inhibition (ATR) [%]	Inhibition (MST3, MST4, YSK1) [%]	Inhibition (SGK3) [%]	Inhibition (MST4, YSK1) [%]	Inhibition (BARK1) [%]	Inhibition (MARK3, MARK4) [%]	Inhibition (PITSLRE) [%]	Inhibition (MAP3K5) [%]	Inhibition (STLK5; [1]) [%]	Inhibition (STLK5; Lys2, SVKASHILISVDGK) [%]	Inhibition (MAST3) [%]	Inhibition (CHK2; Lys1, VAIKIISK) [%]	Inhibition (CHK2; Lys2, DLKPENVLLSSQEEDCLIK) [%]	Inhibition (CK1g3) [%]	Inhibition (MASTL; ATP Loop, GAFGKVYLGQK) [%]	Inhibition (MASTL; Lys1, LYAVKVVK) [%]	other results
C=CC(=O)Nc1cc(Nc2nccc(-c3cn(C)c4ccccc34)n2)c(OC)cc1N(C)CCN(C)C [Osimertinib, osimertinib, reference compound]	12.1	-26.0	-2.1	21.2	-16.2	-4.8	2.9	-8.7	-15.7	-12.5	-3.8	21.0	2.8	3.2	-21.8	17.8	11.1	7.1	16.6	23.8	Inhibition (MAP3K6): -16.3%; Inhibition (NDR2; Lys1, DTGHIYAMKILR): -19.7%; Inhibition (NDR2; Lys2, DIKPDNLLLDAK): -0.656%; Inhibition (AMPKa1, AMPKa2; Lys1, VAVKILNR): 6.4%; Inhibition (AMPKa1, AMPKa2; Lys2, DLKPENVLLDAHMNAK): -33.2%; Inhibition (YANK3): 1.4%; Inhibition (CaMK1a): 7.0%
C=CC(=O)Nc1cc(C(=O)Nc2nc3cccc(C)c3n2[C@@H]2CCCCN(C(=O)C=C)C2)cs1 [ZNL-0056]	5.5	17.8	10.2	-15.4	18.0	12.7	10.1	-9.0	17.8	16.2	20.7	-61.4	-9.2	-41.2	3.9	23.8	13.8	18.0	13.0	16.2	Inhibition (MAP3K6): 20.5%; Inhibition (NDR2; Lys1, DTGHIYAMKILR): 11.0%; Inhibition (NDR2; Lys2, DIKPDNLLLDAK): 3.3%; Inhibition (AMPKa1, AMPKa2; Lys1, VAVKILNR): 20.9%; Inhibition (AMPKa1, AMPKa2; Lys2, DLKPENVLLDAHMNAK): 9.7%; Inhibition (YANK3): -11.7%; Inhibition (CaMK1a): 5.1%
